Results as given in paper PMC12114169, “Synthesis, Characterisation, Biological Evaluation and In Silico Studies of Quinoline–1,2,3-Triazole–Anilines as Potential Antitubercular and Anti-HIV Agents” (Molecules, 2025).
Values after ≈ are worked out from the molar mass of the structure shown. Values joined by “and” are separate entries in the source; they are usually repeats but may differ in a detail not shown here. Identical values can stand only once. Like-named read-outs stand apart in the source and are kept apart here.

What was measured:
[1] = tested on: Mtb H37Rv (ATCC 27294) strain; assay: Antimycobacterial micro broth dilution (resazurin) assay; assay type: cell-based, Mycobacterium tuberculosis; conditions: 7 days, read-out: Anti-Mtb H37Rv MIC90
[2] = target: HIV reverse transcriptase; set-up: method as in PMID 30370848; conditions: cited from earlier work
[3] = MTT cytotoxicity evaluation; conditions: human, Cytotoxicity CC50 TZM-bl Cell Line, MTT assay
[4] = tested on: HIV-1 subtype B (NL4.3 virus); assay: Luciferase-based antiviral assay in TZM-bl cells; conditions: for SI (CC50/IC50): selectivity index, TZM-bl CC50 / HIV-1 IC50
Mtb = tested on: Mtb; set-up: method as in PMID 21489660; conditions: antitubercular activity; cited from earlier work
TZM-bl cell line = assay: MTT cytotoxicity evaluation; conditions: read-out: Cytotoxicity CC50 TZM-bl Cell Line; MTT assay
[5] = Mycobacterium tuberculosis, 168 h
[6] = Human immunodeficiency virus 1, TZM-bl, 48 h, read-out: Anti-HIV HIV-1 Subtype B IC50, NL4.3 virus in TZM-bl cells, 48 h, luciferase
[7] = read-out: Anti-HIV HIV-1 Subtype B IC50, NL4.3 virus in TZM-bl cells, 48 h, luciferase

[N-]=[N+]=Nc1ccnc2cc(Cl)ccc12 [Compound 7, 4-azido-7-chloroquinoline]
MIC90 [1, 5]: 19.1 µM (≈ 3.91 µg/mL)

O=C1O[C@](C#CC2CC2)(C(F)(F)F)c2ccccc2N1Cc1cn(-c2ccnc3cc(Cl)ccc23)nn1 [Compound 5]
IC50 [2]: 0.8 µM

COc1ccc(NCc2cn(-c3ccnc4cc(Cl)ccc34)nn2)cc1 [Compound 11j, [1-(7-Chloro-4-quinolinyl)-1H-1,2,3-triazole-4-methyl]-4-methoxyaniline]
CC50 [3]: 4 µM
IC50 [4, 6]: 180 µM
SI (CC50/IC50) [4]: 0.02
MIC90 [1, 5]: 1370 µM (≈ 501 µg/mL)

Clc1ccc2c(-n3cc(CNc4ccc(Br)cc4)nn3)ccnc2c1 [Compound 11b, [1-(7-Chloro-4-quinolinyl)-1H-1,2,3-triazole-4-methyl]-4-bromoaniline]
CC50 [3]: 0.248 µM
IC50 [4, 6]: 124 µM
SI (CC50/IC50) [4]: 1.994 × 10^−3
MIC90 [1, 5]: 1210 µM (≈ 502 µg/mL)

Fc1cccc(NCc2cn(-c3ccnc4cc(Cl)ccc34)nn2)c1 [Compound 11h, [1-(7-Chloro-4-quinolinyl)-1H-1,2,3-triazole-4-methyl]-3-flouroaniline]
CC50 [3]: 25.5 µM
IC50 [4, 6]: 0.0103 µM
IC50 [4, 7]: 0.0103 µM
SI (CC50/IC50) [4]: 2472.87
MIC90 [1]: 88.72 µM (≈ 31.4 µg/mL)
MIC90 [1, 5]: 88 µM (≈ 31.1 µg/mL)

COc1ccc2nccc(-n3cc(CN4CCN(C(C)=O)CC4)nn3)c2c1 [Compound 3]
MIC (Mtb): 0.625 µg/mL (≈ 1.71 µM)

Clc1ccc2c(-n3cc(CNc4ccc(I)cc4)nn3)ccnc2c1 [Compound 11c, [1-(7-Chloro-4-quinolinyl)-1H-1,2,3-triazole-4-methyl]-4-iodoaniline]
CC50 [3]: 157 µM
IC50 [4, 6]: 23.2 µM
SI (CC50/IC50) [4]: 6.76
MIC90 [1, 5]: 1080 µM (≈ 501 µg/mL)

FC(F)(F)c1ccccc1NCc1cn(-c2ccnc3cc(Cl)ccc23)nn1 [Compound 11g, [1-(7-Chloro-4-quinolinyl)-1H-1,2,3-triazole-4-methyl]-2-triflouromethylaniline]
IC50 [4, 6]: 0.388 µM
IC50 [4, 7]: 0.388 µM
SI (CC50/IC50) [4]: 11,367.49
MIC90 [1, 5]: 155 µM (≈ 62.6 µg/mL)

CC[C@@H](CO)NCCN[C@@H](CC)CO [Ethambutol, reference compound]
MIC90 [1, 5]: 9.68 µM (≈ 1.98 µg/mL)

Cc1cn([C@H]2C[C@H](N=[N+]=[N-])[C@@H](CO)O2)c(=O)[nH]c1=O [AZT, azidothymidine, reference compound]
CC50 [3]: 1120 µM
IC50 [4, 6]: 0.0909 µM
SI (CC50/IC50) [4]: 12,349 and 12,349.59

O=[N+]([O-])c1cccc(NCc2cn(-c3ccnc4cc(Cl)ccc34)nn2)c1 [Compound 11i, [1-(7-Chloro-4-quinolinyl)-1H-1,2,3-triazole-4-methyl]-3-nitroaniline]
CC50 [3]: 0.00901 µM
IC50 [4, 6]: 0.17 µM
IC50 [4, 7]: 0.167 µM
SI (CC50/IC50) [4]: 0.05

COc1ccc(S(=O)(=O)NCc2cn(-c3ccnc4ccc(OC)cc34)nn2)cc1 [Compound 2]
MIC (Mtb): 0.625 µg/mL (≈ 1.47 µM)

COc1ccc2nccc(-n3cc(CNC(C)=O)nn3)c2c1 [Compound 1]
MIC (Mtb): 0.625 µg/mL (≈ 2.1 µM)

Fc1ccc(NCc2cn(-c3ccnc4cc(Cl)ccc34)nn2)cc1 [Compound 11d, [1-(7-Chloro-4-quinolinyl)-1H-1,2,3-triazole-4-methyl]-4-flouroaniline]
CC50 [3]: 1320 µM
Anti-HIV HIV-1 Subtype B IC50 ([4]; NL4.3 virus in TZM-bl cells, 48 h, luciferase): DNC *
MIC90 [1, 5]: 177 µM (≈ 62.5 µg/mL)

Clc1cccc(NCc2cn(-c3ccnc4cc(Cl)ccc34)nn2)c1 [Compound 11e, [1-(7-Chloro-4-quinolinyl)-1H-1,2,3-triazole-4-methyl]-3-chloroaniline]
CC50 [3]: 835 µM
IC50 [4, 6]: 714 µM
SI (CC50/IC50) [4]: 1.17
MIC90 [1, 5]: 169 µM (≈ 62.5 µg/mL)

C#CCNc1ccccc1 [Compound 10a, N-2-propyl-1-yl-benzanamine]
MIC90 [1, 5]: 3810 µM (≈ 500 µg/mL)

Clc1ccc2c(-n3cc(CNc4ccccc4)nn3)ccnc2c1 [Compound 11a]
CC50 (TZM-bl cell line): 177 µM
CC50 [3]: > 100 µM
IC50 [4, 6]: 3.01 µM
SI (CC50/IC50) [4]: 58.75
MIC90 [1, 5]: 187 µM (≈ 62.6 µg/mL)
